One data set deals with T1, E1-STS (Homo sapiens, UniProt P08842).
T1 construct: endogenous in cells; host or cells: MCF-7 human breast cancer cells
T1 sequence (P08842 22-583): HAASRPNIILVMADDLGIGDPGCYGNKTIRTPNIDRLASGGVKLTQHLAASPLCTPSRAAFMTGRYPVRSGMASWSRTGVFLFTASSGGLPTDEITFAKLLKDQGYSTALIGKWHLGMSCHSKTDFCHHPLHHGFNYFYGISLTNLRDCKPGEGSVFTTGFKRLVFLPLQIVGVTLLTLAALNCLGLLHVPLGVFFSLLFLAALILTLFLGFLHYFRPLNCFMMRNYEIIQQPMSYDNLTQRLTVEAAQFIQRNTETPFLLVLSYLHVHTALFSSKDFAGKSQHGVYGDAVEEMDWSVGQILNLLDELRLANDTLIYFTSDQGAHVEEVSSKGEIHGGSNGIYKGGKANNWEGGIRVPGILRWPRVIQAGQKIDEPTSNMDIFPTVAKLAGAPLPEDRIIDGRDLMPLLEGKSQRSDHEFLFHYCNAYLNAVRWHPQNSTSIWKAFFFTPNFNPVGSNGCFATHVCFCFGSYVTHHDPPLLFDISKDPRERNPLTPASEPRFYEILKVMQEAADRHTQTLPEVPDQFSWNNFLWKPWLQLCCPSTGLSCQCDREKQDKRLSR
To be noted: intact MCF-7 cells, at 0.1 mM; cited from earlier work.

In the next data set the test system is rats. To be noted: cited from earlier work.
The next data set deals with T2, rat liver E1-STS (Rattus norvegicus, UniProt P15589).
T2 construct: from tissue; host or cells: rat liver
T2 sequence (P15589 20-577): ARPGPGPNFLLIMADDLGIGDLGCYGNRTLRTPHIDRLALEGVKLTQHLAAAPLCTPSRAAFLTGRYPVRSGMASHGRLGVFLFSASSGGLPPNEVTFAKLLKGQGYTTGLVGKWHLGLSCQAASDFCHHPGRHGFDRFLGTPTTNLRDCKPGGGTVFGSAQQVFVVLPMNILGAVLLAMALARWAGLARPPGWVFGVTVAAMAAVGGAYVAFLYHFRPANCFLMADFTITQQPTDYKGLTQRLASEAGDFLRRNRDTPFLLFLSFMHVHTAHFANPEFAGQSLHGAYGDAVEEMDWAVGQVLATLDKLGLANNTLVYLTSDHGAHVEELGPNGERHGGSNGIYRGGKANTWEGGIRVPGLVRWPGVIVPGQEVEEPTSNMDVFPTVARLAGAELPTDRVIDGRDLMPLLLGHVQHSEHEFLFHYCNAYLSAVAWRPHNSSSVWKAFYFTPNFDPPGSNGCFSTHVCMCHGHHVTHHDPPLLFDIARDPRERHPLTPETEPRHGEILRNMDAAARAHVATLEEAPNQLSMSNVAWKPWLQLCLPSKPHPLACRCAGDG
To be noted: administered either orally or subcutaneously; cited from earlier work.

Another data set addresses T3, DHA-STS (Rattus norvegicus, UniProt P15589).
T3 construct: from tissue; host or cells: rat liver
T3 sequence (P15589 20-577): T2 sequence (P15589 20-577)
To be noted: administered either orally or subcutaneously; cited from earlier work.

As a reminder, the melting point is the temperature of the solid-liquid transition. `CCc1cc(-c2ccc(C(=O)CCC(=O)NCCO)cc2)ccc1O` [Compound 37, 4-(3′-Ethyl-4′-hydroxy-biphenyl)-4-oxo-N-(2-hydroxyethyl)-butyramide]: the melting point is > 110 °C (dec.).

For `CCc1cc(-c2ccc(C(C)=O)cc2)ccc1OC` [Compound 38, 1-(3′-Ethyl-4′-methoxy-biphenyl-4-yl)-ethanone], the melting point was 69 to 72 °C.

Molecule `CCc1cc(-c2ccc(-c3cc[nH]n3)cc2)ccc1OC` [Compound 44, 3-(3′-Ethyl-4′-methoxy-biphenyl-4-yl)-1H-pyrazole] displayed a melting point of 164 to 168 °C.

As for `CCc1cc(-c2ccc(-c3ccn(C)n3)cc2)ccc1OC` [Compound 45, 3-(3′-Ethyl-4′-methoxy-biphenyl-4-yl)-1-methyl-1H-pyrazole], the melting point lay in the range of 167 to 170 °C.

`CCc1cc(-c2ccc(-c3ccnn3C)cc2)ccc1OC` [Compound 46, 5-(3′-Ethyl-4′-methoxy-biphenyl-4-yl)-1-methyl-1H-pyrazole] returned a melting point of 97 to 100 °C.

`CCc1cc(-c2ccc(-c3ccn(CC(=O)OC)n3)cc2)ccc1OC` [Compound 48, [3-(3′-Ethyl-4′-methoxy-biphenyl-4-yl)-pyrazol-1-yl]-acetic Acid Methyl Ester] had a melting point of 116 to 120 °C.

Take `CCc1cc(-c2ccc(-c3cc(CCC(=O)NCc4cccnc4)[nH]n3)cc2)ccc1O` [Compound 66, 3-[5-(3′-Ethyl-4′-hydroxy-biphenyl-4-yl)-2H-pyrazol-3-yl]-N-pyridin-3-ylmethyl-propionamide]: the melting point was in the range of 210 to 214 °C.

Regarding `O=C(CCC(=O)c1ccc(Oc2ccc(O)cc2)cc1)NCc1cccnc1` [Compound 118, 4-(4-(4-Hydroxyphenoxy)phenyl)-4-oxo-N-((pyridin-3-yl)methyl)butanamide], the melting point was > 191 °C (dec.).

In turn, `CC(=O)c1ccc(Oc2ccc(O)cc2)cc1` [Compound 129, 1-(4-(4-Hydroxyphenoxy)phenyl)ethanone] had a melting point of 159 to 161 °C.

`CC(=O)c1ccc(Oc2cccnc2)cc1` [Compound 135, 1-(4-(Pyridin-3-yloxy)phenyl)ethanone] came in with a melting point of 45 to 50 °C.

`CCc1cc(Oc2ccc(C(C)=O)cc2)ccc1OC` [Compound 140, 1-(4-(3-Ethyl-4-methoxyphenoxy)phenyl)ethanone] came in with a melting point of 53 to 56 °C.

In the case of `C[C@]12CC[C@@H]3c4ccc(OS(N)(=O)=O)cc4CC[C@H]3[C@@H]1CCC2=O` [EMATE, oestrone-3-sulphamate], on E1-STS, the “inhibition of E1-STS activity” value is “more than 99%”. For the same molecule, the “oral uterotrophic activity relative to oestradiol” value in the data set with rats is 100 times. The “inhibition of rat liver E1-STS activity” value on rat liver E1-STS is 99%. Also, on DHA-STS, the “inhibition of rat liver DHA-STS activity” value is 99%.

These data come from patent US20090186900A1, “COMPOUND” (priority 2006, published 2009).
